Test results published in patent US20230129485A1, “SYSTEM AND METHOD FOR DETERMINING MATERIAL PROPERTIES OF MOLECULAR SYSTEMS FROM AN AB-INITIO PARAMETERIZED FORCE-FIELD” (InterX, Inc., priority 2021, published 2023).
Read-outs that look alike come from different tables or passages of the source.

Experiments:
[1] = Table 3; free energy of hydration, experimental; cited from earlier work
[2] = Table 3; CHEX/H2O partition coefficient, experimental; cited from earlier work
[3] = Free energy of hydration predicted with the QM-parameterized force field model (ARROW FF), classical MD and PIMD simulation in a water box; conditions: for water Arrow MD Error / water Arrow PIMD8 Error: Table 3; for water Arrow MD Error: absolute error of MD hydration free energy vs experiment; for water Arrow PIMD8 Error: absolute error of PIMD8 hydration free energy vs experiment; for Arrow PIMD8 Error: absolute error vs Exp (hydration)
Outline: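 Classical and PIMD runs (MTS integrator, MTTK barostat at 1 atm) followed minimization and 50 ps equilibration, with 1 ns NPT production per window. Fifteen unequally spaced lambda windows removed all solute-solvent interactions simultaneously in a 32 Å water box. Hydration free energy computed by Bennett acceptance ratio and thermodynamic integration.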

[4] = Free energy of hydration by Polarizable Continuum Model (PCM); conditions: absolute error vs Exp (hydration)
Outline: (§1)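 COSMO solvation free energies were calculated for the molecule set with MolPro because no original-COSMO free energy data were available. SMD and PCM hydration free energies were obtained as received. SMD, PCM and COSMO-RS values cover only molecules that overlap with those computed using the QM-parameterized force field model.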

[5] = Free energy of hydration by COSMO implicit solvent model (MolPro ver. 2012); conditions: absolute error vs Exp (hydration)
Outline: as §1

[6] = implicit solvent model, values received; cited from earlier work
[7] = Free energy of hydration by Free Energy Machine Learning Model (FML); conditions: absolute error vs Exp (hydration)
From the text: Machine learning models can be used for free energy determination.

[8] = Table 3; free energy of solvation in cyclohexane, experimental; cited from earlier work
[9] = implicit solvent model, values received; cited from earlier work; remark: listed apart in the source
[10] = CHEX/H2O partition coefficient (log D) predicted with the QM-parameterized force field model (ARROW FF)
Outline: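 Cyclohexane/water partition coefficients were predicted by molecular simulation with a QM-parameterized force field, with bonded force constants and equilibrium values fitted to MP2/aug-cc-pVTZ energies. Solutes carried neutral functional groups, and results from four independent groups were averaged.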

[11] = Free energy of hydration by Solvation Model Dielectric (SMD) implicit solvent model; conditions: absolute error vs Exp (hydration)
Outline: as §1

[12] = Free energy of hydration by COSMO-RS
Outline: as §1

[13] = Table 3, absolute error of MD log D vs experiment
[14] = Table 3, absolute error of PIMD log D vs experiment

SMILES	water Exp (hydration) [1] [kcal/mol]	Exp (log D) [2]	water Arrow MD Error [3] [kcal/mol]	water Arrow PIMD8 Error [3] [kcal/mol]	Arrow PIMD8 Error [3] [kcal/mol]	PCM Error [4] [kcal/mol]	COSMO/Molpro Error [5] [kcal/mol]	PCM free energy of hydration [6] [kcal/mol]	FML error [7] [kcal/mol]	CHEX Exp (solvation) [8] [kcal/mol]	SMD free energy of hydration [9] [kcal/mol]	log D Arrow MD Error [10, 13]	log D Arrow PIMD Error [10, 14]	SMD Error [11] [kcal/mol]	hydration error ([3]; predicted vs experimental free energy of hydration) [kcal/mol]	log D Arrow MD Error [10]	log D Arrow PIMD Error [10]	COSMO-RS error [12] [kcal/mol]
CCC(=O)OC [MethylPropionate]	-2.93	0.57	0.62	0.10	0.10	0.57	3.75	-3.50	0.20	-3.71	-2.70	0.84	0.45	0.23				
CCCCOC(C)=O [ButylAcetate]	-2.55	1.75	0.85	0.07	0.07	1.25	4.19	-3.80	0.61	-4.94	-2.90	0.60	0.06	0.35				
Cc1ccccc1O [o-cresol]	-5.87	0.11	1.27	0.28	0.28	2.17	1.21	-3.70	0.19	-6.02	-4.60	0.67	0.14	1.27	-1			
CCOC(C)=O [EthylAcetate]	-3.12	0.32	0.28	0.32	0.32	0.58	3.95	-3.70	0.02	-3.55	-3.10			0.02		0.46	0.13	
Cc1cccc(O)c1 [m-cresol]	-5.49	−0.21	2.12	1.03	1.03	1.49	3.97	-4.00	0.72	-5.20	-4.80	0.65	0.09	0.69				
CCCOC(C)=O [PropylAcetate]	-2.86	1.10	0.64	0.07	0.07	0.94	4.12	-3.80	0.24	-4.36	-3.00			0.14		0.65	0.37	
CCC(=O)CC [3-Pentanone]	-3.41	0.65	0.88	0.23	0.23	0.29	3.33	-3.70	0.16	-4.30	-3.50			0.09		0.32	0.02	0.06
CC(C)=O [Acetone]	-3.80	−0.83	0.33	0.31	0.31	0.40	4.55	-4.20	0.34	-2.67	-4.10	0.01	0.31	0.30				0.90
CCCC(C)=O [2-Pentanone]	-3.52	0.49	0.67	0.01	0.01	0.48	4.22	-4.00	0.29	-4.19	-3.70			0.18		0.22	0.20	0.07
CCCCC(C)=O [hexa2none]	-3.28	1.09	0.69	0.20	0.20	0.72	4.43	-4.00	0.07	-4.77	-3.50	0.07	0.11	0.22				0.17
